The text below walks through data of publication PMC8955265, “Systematic Discovery of FBXW7-Binding Phosphodegrons Highlights Mitogen-Activated Protein Kinases as Important Regulators of Intracellular Protein Levels” (International Journal of Molecular Sciences, 2022).

The structures appear in SMILES notation. Where a SMILES comes first, the peptide text is derived from it. [ ]: non-standard residue; d: D form. The star is where a group is joined. 5FAM = O=C1OC2(c3ccc(O)cc3Oc3cc(O)ccc32)c2ccc(C(=O)*)cc21; pT = C[C@@H](OP(=O)(O)O)[C@H](N)C(=O)O; pS = N[C@@H](COP(=O)(O)O)C(=O)O; Cbz = O=C(OCc1ccccc1)*

Test [1] deals with FBXW7-mediated protein degradation. The experiment in a line: Ratiometric DsRed/EGFP protein level assay of full-length proteins with kinase inhibitors. Type of test: cell-based, HEK293T cells. The conditions noted are these: for ZMIZ1 level: full-length ZMIZ1, HEK293T + FBXW7, inhibitor 2 µM. Here is the method:
(§1) HEK293T cells (purchased from ATCC, CRL-3216) were cultured in Dulbecco’s Modified Eagle’s Medium (DMEM, Gibco, Waltham, MA, USA) containing 10% FBS (Gibco, Cat# 10500064), 100 µg/mL Pen/strep (Sigma, P0781) and Amphotericin B (Thermo Fisher, 15290026) at 37 °C in an atmosphere of 5% CO2. Approximately 90,000 cells were plated in 24-well Greiner bio-one plates (#662-160). The next day cells were transfected with Lipofectamine 3000 reagent (L3000001, Invitrogen, Waltham, MA, USA) using the Opti-MEM reduced serum media (Gibco, 31985062). The transfection media was changed with complete DMEM after 4–6 h of transfection. Cells in a 24-well plate were transfected with 500 ng of plasmid DNA in total, for co-transfection each plasmid construct was used in 250 ng amount. For western blots, cells were washed in ice-cold PBS and harvested in SDS loading buffer and then subjected to SDS-PAGE. The samples were then transferred to nitrocellulose membrane. Primary antibodies were the following: Anti-V5 (Invitrogen; 1:5000 dilution), anti-FLAG (Sigma #F1804; 1:5000 dilution), anti-cMyc (#2276, Cell signaling, Danvers, MA, USA) 1:1000 dilution) and anti-tubulin (Sigma #T6199; 1:50,000 dilution). Secondary antibodies (IRDye® 800CW Goat anti-Mouse IgG, LiCOR #926-32210 and IRDye® 680CW Goat anti-Mouse IgG, LiCOR #926-68070; 1:5000 dilution) were used according to the recommendation of the manufacturer and blots were analyzed by Odyssey CLx imaging system (Li-Cor). Kinase inhibitors were used in 2 µM concentration added 6 h before protein level measurements: GSK3—CHR99021 (#S2924, Selleckchem, Munich, Germany), ERK1/2—SCH772984 (Selleckchem, #S7101), p38—SB202190 (Sigma-Aldrich, #S7067), and JNK—JNK-IN-8 (Selleckchem, #S4901). MG132 proteosomal inhibitor (Merck, #474790) was used in 10 µM concentration and cycloheximide (# 239763, Calbiochem, San Diego, CA, USA) was used in 100 µg/mL concentration. HEK293T cells were washed with 500 μL ice-cold PBS twice and gently collected using a pipette 48 h after transfection. The suspension was centrifuged at 500× g for 10 min at 4 °C. After centrifugation, the cell pellet was resuspended in 110 µL ice cold PBS and the fluorescence signal for EGFP (Excitation 485 nm; Emission 515 nm) and DsRed (Excitation 550 nm; Emission 580 nm) was measured in Corning 384-well microplate (#4514) using a plate reader (CytationTM 3, BioTek Instruments, Winooski, VT, USA).

Test [2] has the same test system. The experiment in a line: Western blot of protein levels in FBXW7-transfected cells. Type of test: cell-based, HEK293T cells. Here is the method: as §1, with “concentration.” for “concentration. HEK293T cells were washed with 500 μL ice-cold PBS twice and gently collected using a pipette 48 h after transfection. The suspension was centrifuged at 500× g for 10 min at 4 °C. After centrifugation, the cell pellet was resuspended in 110 µL ice cold PBS and the fluorescence signal for EGFP (Excitation 485 nm; Emission 515 nm) and DsRed (Excitation 550 nm; Emission 580 nm) was measured in Corning 384-well microplate (#4514) using a plate reader (CytationTM 3, BioTek Instruments, Winooski, VT, USA).”
Background: In western blotting, separated proteins are transferred to a membrane and probed.

In the next test the target is T1, Skp1-FBXW7 complex (Homo sapiens, UniProt P63208+Q969H0).
T1 construct: human FBXW7 (263-707) with an N-terminal hexa-histidine (His6) tag; His6 (N, cleaved yes); made in house; host or cells: E. coli Rosetta (DE3)
T1 sequence (Q969H0 263-707): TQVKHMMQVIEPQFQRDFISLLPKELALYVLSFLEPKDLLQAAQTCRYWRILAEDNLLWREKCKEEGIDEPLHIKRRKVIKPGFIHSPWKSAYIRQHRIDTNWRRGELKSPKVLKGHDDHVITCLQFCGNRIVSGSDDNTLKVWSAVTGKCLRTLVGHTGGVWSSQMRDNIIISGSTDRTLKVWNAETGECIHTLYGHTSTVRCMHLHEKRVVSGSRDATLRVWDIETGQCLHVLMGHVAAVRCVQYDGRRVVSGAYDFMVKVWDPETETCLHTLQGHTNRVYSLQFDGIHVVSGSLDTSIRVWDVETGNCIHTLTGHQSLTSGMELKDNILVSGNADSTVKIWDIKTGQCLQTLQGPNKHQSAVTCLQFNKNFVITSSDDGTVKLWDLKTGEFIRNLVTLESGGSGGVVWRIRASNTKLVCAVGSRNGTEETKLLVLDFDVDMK
T1 sequence (P63208 1-149 partner limits assumed): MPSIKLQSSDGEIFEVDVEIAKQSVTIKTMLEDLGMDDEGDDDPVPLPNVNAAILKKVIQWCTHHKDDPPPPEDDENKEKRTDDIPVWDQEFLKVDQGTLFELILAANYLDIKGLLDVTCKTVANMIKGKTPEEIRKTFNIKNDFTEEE
Nature of the test: Fluorescence polarization direct titration of labeled CCNE peptide. Type of test: binding. The conditions noted are these: FP direct titration, 50 nM CF-labeled CCNE peptide with increasing Skp1-FBXW7; 20 mM Tris pH 8.0, 100 mM NaCl, 0.05% Brij35P, 2 mM TCEP; value printed in plot. On the procedure: Truncated Skp1 (1-149) and human FBXW7 (263-707) with an N-terminal hexa-histidine (His6) tag were cloned into a bicistronic plasmid (pMG950) and were co-expressed in E. coli Rosetta (DE3) strain. The Skp1-FBXW7 complex was purified using affinity, anion exchange, and gel filtration chromatography. The DNA expression plasmid was transformed into E. coli Rosetta (DE3) strain and grown in LB until OD600 = 0.5, protein expression was induced with 100 µM isopropyl-β-d-1-thigalatopyaranoside (IPTG) overnight at 18 °C. The cell pellet was lysed, and the recombinant protein was purified using Ni-NTA agarose beads. Before further purification the His6-tag was removed by using the TEV protease and then the protein complex was further purified using anion exchange chromatography twice, first with a Resource Q and then with a Mono Q column (pH = 8). Finally, the complex was subjected to size-exclusion chromatography in 20 mM Tris, pH = 8, 150 mM NaCl, and 1 mM DTT using a Superdex200 10/300 column (GE Healthcare, Chicago, IL, USA). The eluted fractions were pooled together and were supplemented with 10% glycerol and 2 mM TCEP before concentration and storage. […]
On the technique in general: Fluorescence polarisation rises when a labelled molecule tumbles more slowly, as on binding a larger partner.

A further test has as its system FBXW7. Nature of the test: Ratiometric EGFP/DsRed protein degradation assay with degron probes. Type of test: cell-based, human. Conditions: HEK293T + FBXW7, MG132, EGFP/DsRed ratio. The source says:
In order to be able to test putative phosphodegron motifs, a ratiometric protein level monitoring method was adapted to monitor MAPK controlled FBXW7 mediated protein degradation. Briefly, intact DsRed and an EGFP-chimera were expressed in HEK293T cells in equal amounts from an expression plasmid, giving an EGFP/DsRed fluorescence ratio close to one under non-degrading conditions. EGFP was fused to a probe comprised of a putative degron sequence and a known MAPK binding docking motif. EGFP signal is expected to diminish faster than DsRed in cells with more FBXW7 if the probe responded to degradation.
We started out from an intentionally general consensus motif of FBXW7 degrons, inspired by the liberal [TS]P..[TS]P pattern defined for yeast Cdc4 substrates, and scanned the human disordered part of the proteome using SliMSearch4 (the disorder score cut-off was 0.4 and flank length was 5). In all, 22 motifs from this list were subjectively chosen and tested in the ratiometric degradation assay giving only 5 positives (see Supplementary Table S1). Based on the results of this first round, by taking information both from the identified positives and negatives, the consensus motif definition was narrowed to requiring a proline at P + 2, but motifs were allowed to have a phospho-mimicking residue (D or E) at P + 4 because it had been formerly reported that this second phosphorylatable residue may be replaced by aspartate or glutamate. […] In the third round, hydrophobic amino acids were more strictly required at positions −1/−2 and P − 1/2/3 positions were further narrowed and P + 4 position was relaxed based on the identified negatives, which gave a higher hit rate (4 out of 6). This third round gave functional motifs at a good rate, but the used motif definition was very restrictive compared to other known motifs. Finally, in the fourth round, we gave up using an optimal consensus and established the positional relaxation model. […] Hits on this final, most predictive list are presented in Supplementary Table S2. All entries were filtered for motif locations by UniProt annotations, discarding all enzyme-inaccessible (e.g., extracellular) instances. Motifs that had any overlapping PFAM domain indicated were manually assessed using the AlphaFold EBI website. Out of these, only motifs that were highly accessible and located outside of confidently predicted folded domains were kept. We also added kinase consensus compatibility to every motif and the number of experiments where phosphorylation could be detected from PhosphoSitePlus.
The chimera degron module was ordered from IDT as gene Block (gBlock). It consisted of a coiled coil dimerization motif (GCN4: EELLSKNYHLENEVARLKK) to increase sensitivity by allowing multivalent binding, a MAPK binding docking motif (AAKG2: KKNASQKRRSLRVHIPDL), and the CycECO degron motif. The motifs were separated by Gly-Ser-Asn linkers and the gBlock was designed so that the motifs could be easily changed by using unique sets of restriction endonucleases. The gBlock was sub-cloned into the Gateway pENTR4 entry plasmid (Thermo Fisher, Waltham, MA, USA) using restriction enzymes (SalI and NotI). The pENTR4-chimera and the destination plasmid (MSCV-CMV-DsRed-IRES-EGFP-DEST from Addgene; 41941), [28]) were subjected to gateway cloning using LR clonase II enzyme (Invitrogen) to obtain the first DsRed-EGFP-chimera DNA construct containing the cycECO degron. Oligonucleotides corresponding to different degron sequences and docking motifs were ligated into the DsRed-EGFP-chimera DNA construct. The list of all the oligonucleotides used for cloning is provided in Supplementary Table S3. pcDNA3-FLAG-FBXW7α was a kind gift from Michael Pagano (New York University). The FBXW7 arginine mutant (Arg mutant: R465C; R479Q; R505L) was created using two-step PCR and cloned into the pcDNA3-FLAG plasmid. […]

In the case of `Oc1ccc(-c2nc(-c3ccncc3)c(-c3ccc(F)cc3)[nH]2)cc1` [SB202190], the “degradation of JAZF1” value in test [1] (full-length JAZF1, HEK293T + FBXW7, inhibitor 2 µM, 6 h) is “lower”. The ZMIZ1 level result in test [1] (6 h) is on record as “affected”. Also, the “FBXW7-mediated degradation of the JAZF1-SUZ12 fusion construct” value in test [2] (HEK293T co-transfected with Fusion WT and FBXW7, inhibitor 2 µM, anti-Myc western blot) is on record as “counteracted”.
On to `CC(C)C[C@H](NC(=O)CNC(=O)[C@H](CO)NC(=O)[C@@H]1CCCN1C(=O)c1ccc2c(c1)C(=O)OC21c2ccc(O)cc2Oc2cc(O)ccc21)C(=O)N[C@@H](CC(C)C)C(=O)N[C@H](C(=O)N1CCC[C@H]1C(=O)N1CCC[C@H]1C(=O)N[C@@H](CCC(N)=O)C(=O)N[C@@H](COP(=O)(O)O)C(=O)NCC(=O)N[C@@H](CCCCN)C(=O)N[C@@H](CCCCN)C(=O)N[C@@H](CCC(N)=O)C(=O)O)[C@@H](C)OP(=O)(O)O` [fluorescently labeled CCNE peptide] (5FAM-PSGLL[pT]PPQ[pS]GKKQ-OH), for which the equilibrium dissociation constant (Kd) at Skp1-FBXW7 complex was found to be 2.8 ± 1.6 nM.
Take `Cc1cc(NC(=O)c2cccc(NC(=O)/C=C/CN(C)C)c2)ccc1Nc1nccc(-c2cccnc2)n1` [JNK-IN-8]: the “effect on ARID4B level” value in test [1] (full-length ARID4B, HEK293T + FBXW7, inhibitor 2 µM, 6 h) is recorded as “significant effect”. Besides, in test [1] (6 h), the ZMIZ1 level entry was “affected”.
On to `O=C(Nc1ccc2[nH]nc(-c3ccncc3)c2c1)[C@@H]1CCN(CC(=O)N2CCN(c3ccc(-c4ncccn4)cc3)CC2)C1` [SCH772984], for which the ZMIZ1 level result in test [1] (6 h) is “affected”.
For `CC(C)C[C@@H](C=O)NC(=O)[C@H](CC(C)C)NC(=O)[C@H](CC(C)C)NC(=O)OCc1ccccc1` [MG132] (Cbz-Leu-Leu-Leu-aldehyde), the CycEco-EGFP probe degradation entry with FBXW7 is “blocked”. The “protein level of the CycECO-V5 probe” value in test [2] (HEK293T transfected with FBXW7 plasmid, MG132 10 µM, anti-V5 western blot) is listed as “counteracted the effect of FBXW7 expression”. Also, in test [2] (KLF4, ETV5, ARID4B, CDT1, ZMIZ1, JAZF1 V5-tagged constructs, HEK293T, MG132 10 µM, western blot), the “protein levels of full-length constructs in the presence of FBXW7” value is reported as “counteracted the effect of FBXW7”.
`Cc1cnc(-c2cnc(NCCNc3ccc(C#N)cn3)nc2-c2ccc(Cl)cc2Cl)[nH]1` [CHR99021]: the “effect on FBXW7-mediated degradation of full-length constructs” value in test [1] (HEK293T, inhibitor 2 µM added 6 h before DsRed/EGFP measurement) is given as “no effect”.

For orientation: Kd means the equilibrium constant for the complex coming apart. The low end stands for tighter binding, the high end for weaker binding.
